Measured values as given in patent publication US7138231B2 (priority 2000, dated 2006).
Entries after “also recorded” stand apart in the source; their conditions may differ. Like-named read-outs stand apart in the source and are kept apart here.

Assays:
HIV-1 = conditions: cited from earlier work
HIV-2 = conditions: cited from earlier work
[1] = target: HIV-1 protease mutants (I50V, M46I/I47V/I50V, L10F, M46I, I47V) (Human immunodeficiency virus type 1 group M subtype B, UniProt P04585, I535V/I538V/M534I); conditions: triple mutant M46I/I47V/I50V; cited from earlier work
[2] = target: HIV-1 protease mutants (I50V, M46I/I47V/I50V, L10F, M46I, I47V) (Human immunodeficiency virus type 1 group M subtype B, UniProt P04585, I538V); conditions: I50V single-mutant protease; cited from earlier work
[3] = test system: HIV-1 protease mutants (I50V, M46I/I47V/I50V, L10F, M46I, I47V); conditions: single mutants L10F, M46I, and I47V; cited from earlier work
[4] = test system: HIV-1 variants with protease substitutions; conditions: cited from earlier work
[5] = test system: HIV-1 patient viruses with protease L90M; assay: Phenotypic susceptibility profiles of 58 patient virus samples with L90M, no other primary mutations; format: cell-based; conditions: {}
[6] = test system: HIV-1 protease site-directed mutants (N88S, L63P, V77I, M46L) in resistance test vector; assay: Phenotypic susceptibility assay of resistance test vectors with site-directed mutations in PR
Text: The resistance test vectors containing a functional luciferase gene cassette were constructed and host cells were transfected with the resistance test vector DNA. […] The resistance test vector viral particles produced by transfecting the resistance test vector DNA into host cells, either in the presence or absence of protease inhibitors, were used to infect target host cells grown either in the absence of NRTI or NNRTI or in the presence of increasing concentrations of the drug. Luciferase activity in infected target host cells in the presence of drug was compared to the luciferase activity in infected target host cells in the absence of drug. […] The IC50 values were determined by plotting percent drug inhibition vs. log10 drug concentration.
Host cells were seeded in 10-cm-diameter dishes and were transfected one day after plating with resistance test vector plasmid DNA and the envelope expression vector. Transfections were performed using a calcium-phosphate co-precipitation procedure. The cell culture media containing the DNA precipitate was replaced with fresh medium, from one to 24 hours, after transfection. Cell culture media containing resistance test vector viral particles was harvested one to four days after transfection and was passed through a 0.45-mm filter before being stored at −80° C. HIV capsid protein (p24) levels in the harvested cell culture media were determined by an EIA method as described by the manufacturer (SIAC; Frederick, Md.). Before infection, target cells (293 and 293/T) were plated in cell culture media. Control infections were performed using cell culture media from mock transfections (no DNA) or transfections containing the resistance test vector plasmid DNA without the envelope expression plasmid. One to three or more days after infection the media was removed and cell lysis buffer (Promega) was added to each well. Cell lysates were assayed for luciferase activity. The inhibitory effect of the drug was determined using the following equation: % luciferase inhibition=[1−(RLUluc[drug]RLUluc)]×100 where RLUluc [drug] is the relative light unit of luciferase activity in infected cells in the presence of drug and RLUluc is the Relative Light Unit of luciferase activity in infected cells in the absence of drug. IC50 values were obtained from the sigmoidal curves that were generated from the data by plotting the percent inhibition of luciferase activity vs. the log10 drug concentration.
Mutations are introduced into the resistance test vector through any of the widely known methods for site-directed mutagenesis. […] A resistance test vector containing the specific mutation or group of mutations are then tested using the phenotypic susceptibility assay described above and the susceptibility profile is compared to that of a genetically defined wild-type (drug susceptible) resistance test vector which lacks the specific mutations.
Resistance test vectors were constructed containing the N88S mutation alone and in combination with other substitutions in PR (L63P, V77I and M46L) known to modulate the HIV susceptibility to PRIs. Mutations were introduced into the resistance test vector using the mega-primer PCR method for site-directed mutagenesis.

[7] = test system: HIV-1 patient viruses with protease L90M; assay: Phenotypic susceptibility profiles of 333 patient virus samples with L90M (not 30 or 50); format: cell-based
[8] = test system: HIV-1 patient-derived protease and reverse transcriptase segments (N88S in PR) in resistance test vectors; assay: Phenotypic drug susceptibility test with resistance test vectors from patient samples; format: cell-based; conditions: for Fold Change vs. reference: N88S

For `CC(C)CN(C[C@@H](O)[C@H](Cc1ccccc1)NC(=O)O[C@H]1CCOC1)S(=O)(=O)c1ccc(N)cc1` [amprenavir], the IC50 (HIV-1; read-out: IC50) is given as 80 nM, the IC50 (HIV-1; read-out: mean IC50) is given as 12 nM and the IC50 (HIV-2) is given as 340 nM. For the same compound, the “fold-reduced Kl compared to wild-type enzyme” value [1] was 270 fold, the “fold reduction in the inhibition constant (Kl) compared to wild-type enzyme” value [2] was 80 fold and the “affinity” value [3] was “did not display reduced affinity”. For the same compound, the decrease in susceptibility ([4]; I50V as a single mutation) was “two- to threefold”, the “resistance of selected variants” value ([4]; in vitro passage, L10F, M46I, I47V, I50V) was 100 fold and the “change in susceptibility” value ([4]; other substitutions as single mutations in HXB2) was “did not result in reduced susceptibility”. For the same compound, the “fold less susceptible than wild-type virus” value ([4]; triple mutant clone M46I, I47V, I50V) was 20 fold, the “Percent of viruses with indicated primary mutation(s) which are drug sensitive (fold change in IC50 < 2.5)” value [5] was 65.5% and the “change in susceptibility compared to wild type control RTV” value (from here on “change … to wild type control RTV”) ([6]; L63P-N88S-RTV) was “increase in the susceptibility”. For the same compound, the “change … to wild type control RTV” value ([6]; L63P-V77I-N88S-RTV) was “increase in the susceptibility; also recorded: increased susceptibility”, the “change … to wild type control RTV” value ([6]; M46L-L63P-N88S-RTV) was “increase in the susceptibility” and the “change … to wild type control RTV” value ([6]; M46L-L63P-V77I-N88S-RTV) was “increase in the susceptibility”. The “change … to wild type control RTV” value ([6]; N88S-RTV) was “more susceptible”, the “Fold Change vs. reference” value ([6]; site-directed mutation N88S) was 0.04 fold and the “Fold Change vs. reference” value ([6]; site-directed mutations L63P) was 1.06 fold. The “Fold Change vs. reference” value ([6]; site-directed mutations L63P, N88S) was 0.11 fold, the “Fold Change vs. reference” value ([6]; site-directed mutations L63P, V77I) was 0.91 fold and the “Fold Change vs. reference” value ([6]; site-directed mutations L63P, V77I, N88S) was 0.08 fold. For the same compound, the “Fold Change vs. reference” value ([6]; site-directed mutations M46L, L63P, N88S) was 0.12 fold, the “Fold Change vs. reference” value ([6]; site-directed mutations M46L, L63P, V77I, N88S) was 0.14 fold and the “wt % > 2.5” value ([7]; Amprenavir FC>2.5, L90M, position 10 wild type) was 30.8%. The “wt % > 2.5” value ([7]; Amprenavir FC>2.5, L90M, position 15 wild type) was 63.6%, the “wt % > 2.5” value ([7]; Amprenavir FC>2.5, L90M, position 33 wild type) was 57.4% and the “wt % > 2.5” value ([7]; Amprenavir FC>2.5, L90M, position 36 wild type) was 55.3%. The “wt % > 2.5” value ([7]; Amprenavir FC>2.5, L90M, position 46 wild type) was 46.2%, the “wt % > 2.5” value ([7]; Amprenavir FC>2.5, L90M, position 53 wild type) was 57.6% and the “wt % > 2.5” value ([7]; Amprenavir FC>2.5, L90M, position 54 wild type) was 47.5%. The “wt % > 2.5” value ([7]; Amprenavir FC>2.5, L90M, position 58 wild type) was 58.7%, the “wt % > 2.5” value ([7]; Amprenavir FC>2.5, L90M, position 62 wild type) was 55.3% and the “wt % > 2.5” value ([7]; Amprenavir FC>2.5, L90M, position 74 wild type) was 62.5%. The “wt % > 2.5” value ([7]; Amprenavir FC>2.5, L90M, position 82 wild type) was 53.5%, the “wt % > 2.5” value ([7]; Amprenavir FC>2.5, L90M, position 84 wild type) was 48.5% and the “wt % > 2.5” value ([7]; Amprenavir FC>2.5, L90M, position 89 wild type) was 59.3%. The “wt % > 2.5” value ([7]; Amprenavir FC>2.5, L90M, position 92 wild type) was 58.6%, the “wt % > 2.5” value ([7]; Amprenavir FC>2.5, L90M, position 95 wild type) was 58.7% and the “mt % > 2.5” value ([7]; Amprenavir FC>2.5, listed as 90: all samples with L90M) was 60.4%. For the same compound, the “wt % > 10” value ([7]; Amprenavir FC>10, L90M, position 10 wild type) was 2.6%, the “wt % > 10” value ([7]; Amprenavir FC>10, L90M, position 13 wild type) was 10.9% and the “wt % > 10” value ([7]; Amprenavir FC>10, L90M, position 32 wild type) was 11.7%. For the same compound, the “wt % > 10” value ([7]; Amprenavir FC>10, L90M, position 33 wild type) was 8.4%, the “wt % > 10” value ([7]; Amprenavir FC>10, L90M, position 46 wild type) was 8.3% and the “wt % > 10” value ([7]; Amprenavir FC>10, L90M, position 47 wild type) was 11.9%. The “wt % > 10” value ([7]; Amprenavir FC>10, L90M, position 53 wild type) was 11.5%, the “wt % > 10” value ([7]; Amprenavir FC>10, L90M, position 54 wild type) was 5.9% and the “wt % > 10” value ([7]; Amprenavir FC>10, L90M, position 55 wild type) was 11.6%. For the same compound, the “wt % > 10” value ([7]; Amprenavir FC>10, L90M, position 66 wild type) was 11.9%, the “wt % > 10” value ([7]; Amprenavir FC>10, L90M, position 69 wild type) was 14.2% and the “wt % > 10” value ([7]; Amprenavir FC>10, L90M, position 84 wild type) was 8.7%. For the same compound, the “% > 10” value ([7]; Amprenavir FC>10, listed as 90: all samples with L90M) was 12.9%, the “Percent of viruses with indicated primary mutation(s) with reduced susceptibility (fold change in IC50 > 2.5)” value ([7]; L90M) was 60.4% and the “Percent of viruses with indicated primary mutation(s) with reduced susceptibility (fold change in IC50 > 10)” value ([7]; L90M) was 12.9%. For the same compound, the “Fold Change vs. reference” value ([8]; patient sample 360, prior PRI IDV, PR I13V, K20M, M36V, N37A, M46I, I62V, L63P, I93L) was 0.15 fold, the “Fold Change vs. reference” value ([8]; patient sample 627, prior PRI IDV, PR I13I/V, E35D, M46L, L63P, I64V, I73V) was 0.09 fold and the “Fold Change vs. reference” value ([8]; patient sample 0732, prior PRI NFV, PR K14R, I15V, K20T, E35D, M36I, R41K, I62V, L63Q) was 0.08 fold. For the same compound, the “Fold Change vs. reference” value ([8]; patient sample 0910, prior PRI NFV, PR M46I, L63P, V77I, I93I/L) was 0.16 fold, the “Fold Change vs. reference” value ([8]; patient sample 1208, prior PRI NFV, PR I62V, L63P, V77I) was 0.10 fold and the “Fold Change vs. reference” value ([8]; patient sample 3542, prior PRI IDV, PR I13V, K14R, N37D, M46I, L63P, I93L) was 0.16 fold. The “Fold Change vs. reference” value ([8]; patient sample 3654, PR I13V, R41K, M46I, L63P, V77I, I93L) was 0.20 fold, the “change in susceptibility” value ([8]; patient sample RTV-360) was “increase” and the “change in susceptibility” value ([8]; patient sample RTV-627) was “increase”. The “change in susceptibility” value ([8]; patient sample RTV-0732) was “increase; also recorded: increased susceptibility”, the “change in susceptibility” value ([8]; patient sample RTV-0910) was “increase” and the “change in susceptibility” value ([8]; patient sample RTV-1208) was “increase”. The “change in susceptibility” value ([8]; patient sample RTV-3542) was “increase” and the “change in susceptibility” value ([8]; patient sample RTV-3654) was “increase”.
